In test [1] the test system is MNFS60 (murine AML cells). Description: Cell viability assay in MCSF dependent MNFS60 cells (Cell Titer Glo). Type of test: cell-based. The conditions noted are these: Mus musculus, tested at about 1 μM; compounds of Table 3; read-out: M-NFS-60 CP percent inhibition. In a few lines: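 Three-fold serial compound dilutions, prepared in DMSO at 500× the final level, were applied alongside MCSF (final 10 ng/ml). Incubation lasted 72 hrs (37° C., 5% CO2) before CellTiter-Glo addition. Triplicate points were curve-fitted for EC50.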

In test [2] the target is T1, kinase domain of cKIT (Homo sapiens, UniProt P10721).
T1 construct: The kinase domain of cKIT was assayed in 50 mM Hepes; purchased Upstate 14-559
In words: Inhibition of cKIT kinase signaling in an in vitro biochemical assay (alphascreen). To be noted: tested at about 1 μM; compounds of Table 3; read-out: cKit percent inhibition.

The target of test [3] is T2, full-length human CSF-1R receptor (Homo sapiens, UniProt P07333).
T2 construct: transfected with the full-length human CSF-1R receptor cloned in house; expressed in transfected cells; host or cells: HEK293H (Invitrogen Cat. #11631017)
Description: In vitro inhibition of CSF-1R receptor tyrosine phosphorylation in transfected HEK293H cells stimulated with MCSF. Type of test: cell-based. The conditions noted are these: HEK293-H, tested at about 1 μM; compounds of Table 3; read-out: pCSF1R percent inhibition. The method, then: The lysate was then transferred to total CSF-1R antibody coated 96-well plates that had already been blocked with 3% Blocker A from Mesoscale discovery (MSD) for 2 hours and washed afterwards. Lysates were incubated overnight at 4° C. and the plates were then washed 4× with MSD Tris Wash Buffer. […] The plates were read on the Sector 6000 instrument (MSD). Raw data was imported in Abase and EC50s calculated with XL-fit data analysis software.

In test [4] the target is T3, kinase domain of PDGFRβ (Homo sapiens, UniProt P09619).
T3 construct: The kinase domain of PDGFRβ was assayed in 50 mM Hepes; purchased Invitrogen P3082
In words: Inhibition of PDGFRb kinase signaling in an in vitro biochemical assay (alphascreen). The conditions noted are these: tested at about 1 μM; compounds of Table 3; read-out: PDGFRβ percent inhibition.

Test [5] deals with T4, cytoplasmic domain of the human CSF-1R (Homo sapiens, UniProt P07333).
T4 construct: Recombinant protein corresponding to the cytoplasmic domain of the human CSF-1R; purchased Invitrogen Corporation, Carlsbad, Calif; PV3249
T4 sequence (P07333 539-972 limits assumed): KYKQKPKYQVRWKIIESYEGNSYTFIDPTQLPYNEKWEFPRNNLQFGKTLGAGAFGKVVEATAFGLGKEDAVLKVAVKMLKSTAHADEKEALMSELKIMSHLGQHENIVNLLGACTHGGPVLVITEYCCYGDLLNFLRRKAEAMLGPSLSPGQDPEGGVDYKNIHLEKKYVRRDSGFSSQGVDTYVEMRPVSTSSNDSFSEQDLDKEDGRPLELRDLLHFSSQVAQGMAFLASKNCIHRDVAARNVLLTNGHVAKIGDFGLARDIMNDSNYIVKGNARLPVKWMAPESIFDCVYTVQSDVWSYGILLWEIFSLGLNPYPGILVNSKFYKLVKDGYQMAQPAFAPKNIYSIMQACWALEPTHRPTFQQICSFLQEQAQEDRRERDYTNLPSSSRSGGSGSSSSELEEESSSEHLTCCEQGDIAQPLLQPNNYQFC
In words: In vitro kinase assay for colony stimulating factor-1 receptor (AlphaScreen). It counts as biochemical. To be noted: tested at about 1 μM; compounds of Table 3; read-out: CSF-1R percent inhibition. In a few lines: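 Test compounds, serially diluted threefold starting at 25 μM, were mixed with Hepes buffer (pH 7.5, Mg2+/Mn2+, DTT, BSA, Tween 80) containing 1 μM ATP. Recombinant kinase was present at 4 nM. After stopping, beads were added and plates were read the next day by AlphaScreen.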

T1 sequence (P10721 589-937 limits assumed): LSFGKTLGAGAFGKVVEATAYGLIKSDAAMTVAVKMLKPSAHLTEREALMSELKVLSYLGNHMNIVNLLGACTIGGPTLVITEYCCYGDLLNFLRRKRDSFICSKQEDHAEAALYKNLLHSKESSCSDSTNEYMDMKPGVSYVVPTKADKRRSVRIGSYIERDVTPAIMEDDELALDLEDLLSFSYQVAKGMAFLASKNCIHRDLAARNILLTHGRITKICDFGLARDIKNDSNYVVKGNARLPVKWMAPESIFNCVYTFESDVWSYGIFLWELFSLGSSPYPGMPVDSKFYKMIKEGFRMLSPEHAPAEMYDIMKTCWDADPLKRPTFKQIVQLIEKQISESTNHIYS
T2 sequence (P07333 20-972): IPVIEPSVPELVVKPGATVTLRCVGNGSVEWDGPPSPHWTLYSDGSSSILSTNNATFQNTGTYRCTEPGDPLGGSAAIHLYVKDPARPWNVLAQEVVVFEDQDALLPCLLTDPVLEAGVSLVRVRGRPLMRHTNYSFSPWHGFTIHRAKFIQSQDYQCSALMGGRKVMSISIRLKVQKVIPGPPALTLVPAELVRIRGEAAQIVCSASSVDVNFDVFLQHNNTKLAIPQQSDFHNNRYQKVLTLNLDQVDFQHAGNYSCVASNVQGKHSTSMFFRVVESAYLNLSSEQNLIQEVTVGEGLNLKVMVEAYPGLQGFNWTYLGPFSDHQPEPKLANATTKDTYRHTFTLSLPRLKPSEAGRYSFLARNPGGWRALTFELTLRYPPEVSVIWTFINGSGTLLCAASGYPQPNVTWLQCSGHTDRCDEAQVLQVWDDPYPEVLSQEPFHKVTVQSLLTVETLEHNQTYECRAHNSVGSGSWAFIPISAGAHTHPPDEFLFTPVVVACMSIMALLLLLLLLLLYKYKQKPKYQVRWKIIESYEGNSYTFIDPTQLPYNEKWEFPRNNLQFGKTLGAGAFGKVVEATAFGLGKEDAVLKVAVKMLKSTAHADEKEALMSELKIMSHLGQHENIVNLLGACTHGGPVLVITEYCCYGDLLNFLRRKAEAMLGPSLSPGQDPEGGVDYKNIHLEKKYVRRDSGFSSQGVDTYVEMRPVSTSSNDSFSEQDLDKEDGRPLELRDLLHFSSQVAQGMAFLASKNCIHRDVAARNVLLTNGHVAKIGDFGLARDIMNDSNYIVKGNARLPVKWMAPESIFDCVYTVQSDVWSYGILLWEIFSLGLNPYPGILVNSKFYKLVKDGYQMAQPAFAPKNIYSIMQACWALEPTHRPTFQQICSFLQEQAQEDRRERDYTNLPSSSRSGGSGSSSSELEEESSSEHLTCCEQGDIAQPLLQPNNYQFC
T3 sequence (P09619 600-962 limits assumed): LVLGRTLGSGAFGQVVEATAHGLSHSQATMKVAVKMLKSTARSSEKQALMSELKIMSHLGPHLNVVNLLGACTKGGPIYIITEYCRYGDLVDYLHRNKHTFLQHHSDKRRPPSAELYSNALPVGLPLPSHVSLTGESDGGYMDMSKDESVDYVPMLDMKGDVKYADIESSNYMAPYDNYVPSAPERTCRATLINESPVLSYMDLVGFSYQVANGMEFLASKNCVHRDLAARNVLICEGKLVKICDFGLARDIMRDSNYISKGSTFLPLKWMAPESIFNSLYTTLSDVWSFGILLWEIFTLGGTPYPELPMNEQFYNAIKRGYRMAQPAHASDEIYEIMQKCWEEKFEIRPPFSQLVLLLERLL

As for `CCc1nc(-c2cc(Oc3ccc4nc(N[C@@H]5CCCC[C@H]5O)sc4c3)ccn2)[nH]c1CC` [Example 266, (1R,2R)-2-(6-(2-(4,5-diethyl-1H-imidazol-2-yl)pyridin-4-yloxy)benzo[d]thiazol-2-ylamino)cyclohexanol], the inhibition at 1 µM in test [1] is 100%; in test [2] it was 18%; in test [3], 94%; in test [4], 21%; in test [5] it was 100%.
As to `CCCc1nc(-c2cc(Oc3ccc4nc(N[C@@H]5CCCC[C@H]5O)sc4c3)ccn2)[nH]c1C` [Example 267, (1R,2R)-2-(6-(2-(5-methyl-4-propyl-1H-imidazol-2-yl)pyridin-4-yloxy)benzo[d]thiazol-2-ylamino)cyclohexanol], the inhibition at 1 µM in test [1] is 100%; in test [2], 16%; in test [3] it was 96%; in test [4] it was 26%; in test [5] it was 100%.
For the compound `Cc1c[nH]c(-c2cc(Oc3ccc4nc(N[C@@H](C)C5CCCCC5)sc4c3)ccn2)n1` [Example 268, (S)-N-(1-cyclohexylethyl)-6-(2-(4-methyl-1H-imidazol-2-yl)pyridin-4-yloxy)benzo[d]thiazol-2-amine], the inhibition at 1 µM in test [1] turned out to be 84%; in test [2], 25%; in test [3], 87%; in test [4], 29%; in test [5], 100%.
The corresponding values for `Cc1nc(-c2cc(Oc3ccc4nc(N[C@@H](C)C5CCCCC5)sc4c3)ccn2)[nH]c1C` [Example 269, (S)-N-(1-cyclohexylethyl)-6-(2-(4,5-dimethyl-1H-imidazol-2-yl)pyridin-4-yloxy)benzo[d]thiazol-2-amine] are 75%, 18%, 85%, 13% and 100%.
In the same order, the values of `CCc1nc(-c2cc(Oc3ccc4nc(N[C@@H](C)C5CCCCC5)sc4c3)ccn2)[nH]c1C` [Example 270, (S)-N-(1-cyclohexylethyl)-6-(2-(4-ethyl-5-methyl-1H-imidazol-2-yl)pyridin-4-yloxy)benzo[d]thiazol-2-amine] are 50%, 21%, 74%, 11% and 98%.
In the same order, the values of `C[C@H](Nc1nc2ccc(Oc3ccnc(-c4nc5c([nH]4)CCCC5)c3)cc2s1)C1CCCCC1` [Example 271, (S)-N-(1-cyclohexylethyl)-6-(2-(4,5,6,7-tetrahydro-1H-benzo[d]imidazol-2-yl)pyridin-4-yloxy)benzo[d]thiazol-2-amine] are 54%, 46%, 55%, 24% and 98%.
Consider `CCCn1cc(-c2cc(Oc3ccc4nc(N[C@@H](C)C5CCCCC5)sc4c3)ccn2)cn1` [Example 273, (S)-N-(1-cyclohexylethyl)-6-(2-(1-propyl-1H-pyrazol-4-yl)pyridin-4-yloxy)benzo[d]thiazol-2-amine], for which the inhibition at 1 µM in test [1] was found to be 95%; in test [2], 41%; in test [3], 88%; in test [4], 14%; in test [5], 100%.
The corresponding values for `C[C@H](Nc1nc2ccc(Oc3ccnc(-c4cccnc4)c3)cc2s1)C1CCCCC1` [Example 274, (S)-6-(2,3'-bipyridin-4-yloxy)-N-(1-cyclohexylethyl)benzo[d] thiazol-2-amine] are 76%, 28%, 82%, 12% and 100%.

These data come from patent publication US8173689B2 (Novartis AG, priority 2006, dated 2012).
